From patent publication US11819483B2, “Combination therapy to treat urea cycle disorders” (Baylor College of Medicine, priority 2017, dated 2023)
Like-named read-outs stand apart in the source and are kept apart here. Marks after values point to notes of the source that are not given here.

Legend:
[1] = Urea metabolism and total urinary nitrogen excretion; type: in vivo, human; parameters: Urinary urea-^15N: unit not given here; settings: for Urinary N: N intake 9.81 g/d; for Urea production: [^13C^18O]urea tracer, day 4; for ^15N as % of test meal: urinary urea ^15N
Description: (§1) This was a randomized, three-arm, crossover study. Each arm was completed over a four-day period with a washout period of at least 7 days between any two of the treatment arms (FIG. 1). […] The treatments were designed to provide isomolar amount of drugs and the total daily dose was administered in three equally divided doses.
(§2) On day 1 of study arm 1, detailed medical history review and physical examination were performed. Complete blood count, comprehensive metabolic panel, plasma ammonia, and urinalysis (safety laboratory measurements) were performed. Urine pregnancy test was performed on all females. Meals prepared at the CNRC to provide 0.8 g·kg^−1·day^−1 protein and 32 kcal·kg^−1·day^−1 were given for next three days. The standardized protein and caloric intake allowed for comparison of nitrogen excretion among the three arms. Subjects were randomized to a predetermined treatment sequence and the first dose of the appropriate medication was administered under supervision. Subjects took the study medication with meals for three days (08:00 breakfast; 13:00 lunch; 19:00 dinner) (FIG. 1). […] On day 3, subjects omitted the 19:00 dose of the medication to prevent interference with the analysis on day 4 from metabolite conjugates from the previous day. On day 4, fasting blood sample was obtained for the determination of plasma amino acids and urea concentrations, background isotopic enrichments, basic metabolic profile, complete blood count, and plasma concentrations of phenylbutyrate, benzoate, PAGN, and HA. Urine was collected for measurements of urea, phenylbutyrate, benzoate, PAGN, and HA. At 0 hours, the test meal containing half of the daily dietary allowance of protein (0.4 g·kg^−1) was provided by a commercial liquid meal replacement (Ensure Plus, Abbott, Abbot Park, Ill.) and ^15N labeled spirulina (40 mg·kg^−1; ISOTEC, Miamisburg, Ohio). […] A dose of 40 mg·kg^−1 labeled ^15N-labeled spirulina was estimated to result in dietary enrichment of ˜5 mole percent excess. The morning meal, which was ingested in ˜10 minutes, was followed by a dose of study medication and an intravenous bolus dose of urea tracer, [^13C^18O]urea (6 mmol/subject; ISOTEC, Miamisburg, Ohio). Blood samples to determine concentrations and isotopic enrichments of the drugs and their conjugated products, as well as amino acids and urea were collected every 30 minutes for the first four hours and then hourly between hours 4 and 8 (FIG. 1). Urine was collected in four 2-hour batched periods during the eight hour admission period. […] The procedures for the study arms 2 and 3 were identical to those performed in arm 1.
(§3) Plasma and urinary drugs and their conjugated products as well as urea and amino acids were determined by mass spectrometry and quantitated based on the dilution of labeled internal standards. Total urinary nitrogen was determined using the micro-Kjeldahl method.
Plasma amino acids concentrations and enrichments were determined by HESI LC-MS/MS. A cell free U-[^13C^15N] amino acid mix was used as internal standard. Total urinary nitrogen was determined using the micro-Kjeldahl method.

[2] = day 4
[3] = Urinary excretion of phenylbutyrate, benzoate and their conjugated products; nitrogen conjugation in 24 h urine; settings: for Total N excreted as conjugated products, % test meal: fraction of nitrogen content of test meal; for efficacy of conjugation (percent of dose recovered as conjugate in 24 h urine): given as sole treatments, highest dose; for Conjugation efficacy: nitrogen conjugated divided by amount of drug provided
Description: as §1, §2, §3
Plasma and urinary phenylbutyrate, PAA, and benzoate were determined as their pentafluorobenzyl derivatives by NCI-GC-MS; . [^2H5] […] 4-phenylbutyric acids (C/D/N Isotopes, Quebec, Canada) were used as internal standards. Underivatized PAGN and HA were measured by HESI LC-MS/MS; [^2H5] PAGN and [^2H5] HA (C/D/N Isotopes, Quebec, Canada) were used as internal standards.
Accordingly, these background values were subtracted from the values obtained during the treatment with phenylbutyrate and benzoate. The total amount of nitrogen conjugated was expressed as fraction of the test meal, by dividing by the total nitrogen content of the test meal. The conjugation of dietary nitrogen was calculated as the amount of ^15N conjugated by multiplying the total amount of nitrogen conjugated by the respective ^15N enrichment. For PAGN, the labeling of the amino and amido group were considered.

clinical = settings: human, in vivo
[4] = plasma
Description: On day 1 of study arm 1, detailed medical history review and physical examination were performed. Complete blood count, comprehensive metabolic panel, plasma ammonia, and urinalysis (safety laboratory measurements) were performed. Urine pregnancy test was performed on all females. Meals prepared at the CNRC to provide 0.8 g·kg^−1·day^−1 protein and 32 kcal·kg^−1·day^−1 were given for next three days. The standardized protein and caloric intake allowed for comparison of nitrogen excretion among the three arms. Subjects were randomized to a predetermined treatment sequence and the first dose of the appropriate medication was administered under supervision. Subjects took the study medication with meals for three days (08:00 breakfast; 13:00 lunch; 19:00 dinner) (FIG. 1). […] On day 3, subjects omitted the 19:00 dose of the medication to prevent interference with the analysis on day 4 from metabolite conjugates from the previous day. On day 4, fasting blood sample was obtained for the determination of plasma amino acids and urea concentrations, background isotopic enrichments, basic metabolic profile, complete blood count, and plasma concentrations of phenylbutyrate, benzoate, PAGN, and HA. […]
Plasma amino acids concentrations and enrichments were determined by HESI LC-MS/MS. […] Total urinary nitrogen was determined using the micro-Kjeldahl method.

[5] = 24 h urine, ^15N labeled test meal
[6] = 24 h urine, background subtracted

Row | Compound | % N excreted from daily intake ([1]; 24 h urine) [%] | Urea N as a % total urinary N ([1]; 24 h urine) [%] | Urinary Urea N ([1]; 24 h urine) [g/day] | Urinary N ([1]; 24 h urine) [g/day] | Urea production [1] [µmol/kg/h] | ^15N as % of test meal ([1]; 24 h urine) [%] | urinary excretion of unconjugated drug ([3]; 24 h urine) | Total 15N in conjugated products, % test meal [3, 5] [% test meal] | Total N excreted as conjugated products, % test meal ([3]; 24 h urine) | efficacy of conjugation (percent of dose recovered as conjugate in 24 h urine) [3] [%] | Conjugation efficacy ([3]; gram basis) | Conjugation efficacy ([3]; molar basis) | also measured
1 | O=C([O-])c1ccccc1.[Na+] [NaBz, sodium benzoate] | 65.1 | 65.1 | 4.20 | 6.38 | 197 | 14.7 | negligible | 1.51 | 4.65 ^b % test meal | ~65 | 64.2^b mg N/g drug | 9.25^b mg N/mmol drug | Bz AUC0-8 ([2]; plasma benzoate, 0 to 8 h): 301.7 µmol/L; Bz Tmax ([2]; plasma benzoate): 1.6^b h; Bz Tmax ([2]; plasma benzoate, listed as benzoate): ~1.5 h; Benzoate Cmax and AUC0-8, NaBz arm relative to MIX arm ([2]; plasma): 4-5 times; Cmax ([2]; read-out: Bz Cmax, plasma benzoate): 217 µM; Urinary excretion of Bz ([3]; 24 h urine): 6.5 μmol/24 h; Urinary excretion of Bz, % of dose ([3]; 24 h urine): 0.02 % of dose; Urinary HA (Conjugated ^15N Products) [3, 5]: 253.9 μmol/24 h; Urinary excretion of HA [3, 6]: 16.4 mmol/24 h; Urinary excretion of HA, % of dose ([3]; 24 h urine, percent of benzoate dose recovered as HA): 66.1 % of dose
2 | O=C(O)Cc1ccccc1 [PAA, phenylacetate] | – | – | – | – | – | – | negligible | – | – | – | – | – | –
3 | O=C(O)CNC(=O)c1ccccc1 [hippuric acid] | – | – | – | – | – | – | – | – | – | – | – | – | Tmax (clinical): 2.2 h
4 | sodium phenylbutyrate [NaPB] | 65.6 | 63.6 | 4.16 | 6.47 | 192 | 15.2 | negligible | 1.62 | 8.74 ^a % test meal | ~65 | 92.5^ab mg N/g drug | 17.2^a mg N/mmol drug | Urinary urea-^15N [1, 5]: 37.0; Total N excreted as conjugated products ([3]; 24 h urine): 30.7 mmol/24 h; Urinary excretion of PAA ([3]; 24 h urine): 40.3 μmol/24 h; Urinary excretion of PAA, % of dose ([3]; 24 h urine): 0.16 % of dose; Urinary excretion of PB ([3]; 24 h urine): 32.3 μmol/24 h; Urinary excretion of PB, % of dose ([3]; 24 h urine): 0.13 % of dose; Urinary 2&5-[^15N] PAGN [3, 5]: 38.9 μmol/24 h; Urinary 2-[^15N] PAGN [3, 5]: 43.9 μmol/24 h; Urinary excretion of PAGN [3, 6]: 15.3 mmol/24 h; Urinary excretion of PAGN, % of dose ([3]; 24 h urine, percent of phenylbutyrate dose recovered as PAGN): 61.5 % of dose; leucine AUC0-8 ([4]; response to phenylbutyrate inclusion in the treatment, P=0.032): reduction; tryptophan AUC0-8 ([4]; response to phenylbutyrate, P<0.001): reduction
